Data taken from patent US20030229053A1, “Compounds and methods for the treatment or prevention of flavivirus infections” (Shire BioChem Inc., priority 2001, published 2003).

molecular target: HCV NS5B RNA-dependent RNA polymerase (Hepatitis C virus genotype 1b, UniProt P26663); test: In vitro RNA-dependent RNA polymerase assay (Assay 1), polyA/oligo dT, TCA precipitation; assay type: biochemical; conditions: polyA/oligo dT template/primer, 200 ng NS5B, 2 h at 22° C.; read-out: RNA pol Assay 1 IC50 (μm)
Sequence (P26663 2420-3010 limits assumed): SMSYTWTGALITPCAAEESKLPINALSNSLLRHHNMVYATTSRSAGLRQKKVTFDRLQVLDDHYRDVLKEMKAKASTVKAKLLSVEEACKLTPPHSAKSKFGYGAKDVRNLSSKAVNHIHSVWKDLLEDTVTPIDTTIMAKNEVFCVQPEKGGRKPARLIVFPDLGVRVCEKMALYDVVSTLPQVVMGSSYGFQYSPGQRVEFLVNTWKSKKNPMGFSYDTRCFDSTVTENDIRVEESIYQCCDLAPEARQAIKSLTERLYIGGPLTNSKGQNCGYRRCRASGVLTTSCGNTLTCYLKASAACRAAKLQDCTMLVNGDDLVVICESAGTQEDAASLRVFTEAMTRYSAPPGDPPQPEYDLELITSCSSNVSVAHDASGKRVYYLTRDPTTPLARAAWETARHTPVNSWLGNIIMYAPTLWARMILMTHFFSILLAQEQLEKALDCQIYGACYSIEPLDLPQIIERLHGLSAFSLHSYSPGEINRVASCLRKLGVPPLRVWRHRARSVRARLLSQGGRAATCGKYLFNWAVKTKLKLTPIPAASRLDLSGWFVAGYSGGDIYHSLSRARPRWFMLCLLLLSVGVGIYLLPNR
Outline: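 Purified NS5B (200 ng) on annealed polyA/oligo dT15 in 20 mM Tris-HCl pH 7.5, 50 mM NaCl, 5 mM MgCl2, 1 mM DTT, 15 µM cold UTP plus [32P]-UTP, 2 h at 22°C. Product TCA-precipitated, filtered onto glass-fibre and counted by liquid scintillation.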

Row | IC50 [µM] | SMILES
1 | < 5 | O=C(CN(C(=O)c1ccc(Cl)cc1Cl)[C@@H](Cc1ccccc1)C(=O)O)c1ccc(-c2ccc(Cl)cc2Cl)o1 [compound #107, (2s)-2-((2,4-Dichloro-benzoyl)-{2-[5-(2,4-dichloro-phenyl)-furan-2-yl]-2-oxo-ethyl}-amino)-3-phenyl-propionic acid]
2 | 5 to 20 | C=CCN(C(=O)c1ccc(Cl)cc1Cl)[C@@H](Cc1ccccc1)C(=O)O [compound #109, (2s)-2-[Allyl-(2,4-dichloro-benzoyl)-amino]-3-phenyl-propionic acid]
3 | 5 to 20 | CN(C(=O)c1ccc(Cl)cc1Cl)[C@@H](Cc1ccccc1)C(=O)O [compound #110, (2s)-2-[(2,4-Dichloro-benzoyl)-methyl-amino]-3-phenyl-propionic acid]
4 | 5 to 20 | C#CCN(C(=O)c1ccc(Cl)cc1Cl)[C@@H](Cc1ccccc1)C(=O)O [compound #111, (2s)-2-[(2,4-Dichloro-benzoyl)-prop-2-ynyl-amino]-3-phenyl-propionic acid]
5 | > 20 | CCCN(C(=O)c1ccc(Cl)cc1Cl)[C@@H](Cc1ccccc1)C(=O)O [compound #112, (2s)-2-[(2,4-Dichloro-benzoyl)-propyl-amino]-3-phenyl-propionic acid]
6 | < 5 | O=C(O)[C@H](Cc1ccccc1)N(CC#Cc1cc2ccccc2o1)C(=O)c1ccc(Cl)cc1Cl [compound #113, (2s)-2-[(3-Benzofuran-2-yl-prop-2-ynyl)-(2,4-dichloro-benzoyl)-amino]-3-phenyl-propionic acid]
7 | < 5 | O=C(O)[C@H](Cc1ccccc1)N(C(=O)c1ccc(Cl)cc1Cl)c1ccc(-c2cc3ccccc3o2)cc1 [compound #114, (2s)-2-[(4-Benzofuran-2-yl-phenyl)-(2,4-dichloro-benzoyl)-amino]-3-phenyl-propionic acid]
8 | 5 to 20 | CC(C)=CCN(C(=O)c1ccc(Cl)cc1Cl)[C@@H](Cc1ccccc1)C(=O)O [compound #115, (2s)-2-[(2,4-Dichloro-benzoyl)-(3-methyl-but-2-enyl)-amino]-3-phenyl-propionic acid]
9 | 5 to 20 | C=C(Br)CN(C(=O)c1ccc(Cl)cc1Cl)C(Cc1ccccc1)C(=O)O (centres unmarked) [compound #116, 2-[(2-Bromo-allyl)-(2,4-dichloro-benzoyl)-amino]-3-phenyl-propionic acid]
10 | < 5 | O=C(O)[C@H](Cc1ccccc1)N(Cc1ccc(-c2ccccc2C(F)(F)F)o1)C(=O)c1ccc(Cl)cc1Cl [compound #120, (2s)-2-{(2,4-Dichloro-benzoyl)-[5-(2-trifluoromethyl-phenyl)-furan-2-ylmethyl]-amino}-3-phenyl-propionic acid]
11 | < 5 | CCOC(=O)c1ccccc1-c1ccc(CN(C(=O)c2ccc(Cl)cc2Cl)[C@@H](Cc2ccccc2)C(=O)O)s1 [compound #121, (2s)-2-(5-{[(1s-1-Carboxy-2-phenyl-ethyl)-(2,4-dichloro-benzoyl)-amino]-methyl}-thiophen-2-yl)-benzoic acid ethyl ester]
12 | < 5 | CCOC(=O)c1cccc(-c2ccc(CN(C(=O)c3ccc(Cl)cc3Cl)[C@@H](Cc3ccccc3)C(=O)O)s2)c1 [compound #122, 3-(5-{[(1s-1-Carboxy-2-phenyl-ethyl)-(2,4-dichloro-benzoyl)-amino]-methyl}-thiophen-2-yl)-benzoic acid ethyl ester]
13 | < 5 | O=C(O)[C@H](Cc1ccccc1)N(Cc1ccc(-c2cccc(Cl)c2)o1)C(=O)c1ccc(Cl)cc1Cl [compound #123, (2s)-2-[[5-(3-Chloro-phenyl)-furan-2-ylmethyl]-(2,4-dichloro-benzoyl)-amino]-3-phenyl-propionic acid]
14 | < 5 | O=C(O)[C@H](Cc1ccccc1)N(Cc1sc(Br)cc1Br)C(=O)c1ccc(Cl)cc1I [compound #124, (2s)-2-[(4-Chloro-2-iodo-benzoyl)-(3,5-dibromo-thiophen-2-ylmethyl)-amino]-3-phenyl-propionic acid]
15 | < 5 | O=C(O)c1cccc(-c2ccc(CN(C(=O)c3ccc(Cl)cc3Cl)[C@@H](Cc3ccccc3)C(=O)O)s2)c1 [compound #125, (2s)-3-(5-{[(1-Carboxy-2-phenyl-ethyl)-(2,4-dichloro-benzoyl)-amino]-methyl}-thiophen-2-yl)-benzoic acid]
16 | < 5 | O=C(O)[C@H](Cc1ccccc1)N(Cc1ccc(-c2ccc(Cl)s2)o1)C(=O)c1ccc(Cl)cc1Cl [compound #126, (2s)-2-[[5-(5-Chloro-thiophen-2-yl)-furan-2-ylmethyl]-(2,4-dichloro-benzoyl)-amino]-3-phenyl-propionic acid]
17 | < 5 | O=C(O)[C@H](Cc1ccccc1)N(Cc1ccc(-c2cccs2)s1)C(=O)c1ccc(Cl)cc1Cl [compound #127, (2s)-2-[[2,2′]Bithiophenyl-5-ylmethyl-(2,4-dichloro-benzoyl)-amino]-3-phenyl-propionic acid]
18 | < 5 | O=C(O)[C@H](Cc1ccccc1)N(Cc1ccc(-c2ccc(Cl)s2)s1)C(=O)c1ccc(Cl)cc1Cl [compound #128, (2s)-2-[(5′-Chloro-[2,2′]bithiophenyl-5-ylmethyl)-(2,4-dichloro-benzoyl)-amino]-3-phenyl-propionic acid]
19 | < 5 | O=C(O)[C@H](Cc1ccccc1)N(Cc1cc(-c2cc(F)cc(F)c2)cs1)C(=O)c1ccc(Cl)cc1Cl [compound #129, (2s)-2-{(2,4-Dichloro-benzoyl)-[4-(3,5-difluoro-phenyl)-thiophen-2-ylmethyl]-amino}-3-phenyl-propionic acid]
20 | < 5 | O=C(O)[C@H](Cc1ccccc1)N(Cc1cc(-c2cccc(F)c2)cs1)C(=O)c1ccc(Cl)cc1Cl [compound #130, (2s)-2-{(2,4-Dichloro-benzoyl)-[4-(3-fluoro-phenyl)-thiophen-2-ylmethyl]-amino}-3-phenyl-propionic acid]
21 | < 5 | O=C(O)[C@H](Cc1ccccc1)N(Cc1ccc(-c2cccc(C(F)(F)F)c2)o1)C(=O)c1ccc(Cl)cc1I [compound #131, (2s)-2-{(4-Chloro-2-iodo-benzoyl)-[5-(3-trifluoromethyl-phenyl)-furan-2-ylmethyl]-amino}-3-phenyl-propionic acid]
22 | < 5 | O=C(O)[C@H](Cc1ccccc1)N(Cc1cc(-c2ccc(Cl)s2)cs1)C(=O)c1ccc(Cl)cc1Cl [compound #133, (2s)-2-[(5-Chloro-[2,3′]bithiophenyl-5′-ylmethyl)-(2,4-dichloro-benzoyl)-amino]-3-phenyl-propionic acid]
23 | < 5 | COc1ccc(-c2ccc(CN(C(=O)c3ccc(Cl)cc3Cl)[C@@H](Cc3ccccc3)C(=O)O)o2)cc1 [compound #134, (2s)-2-{(2,4-Dichloro-benzoyl)-[5-(4-methoxy-phenyl)-furan-2-ylmethyl]-amino}-3-phenyl-propionic acid]
24 | < 5 | COc1ccc(-c2ccc(CN(C(=O)c3ccc(Cl)cc3Cl)[C@@H](Cc3ccccc3)C(=O)O)s2)cc1 [compound #135, (2s)-2-{(2,4-Dichloro-benzoyl)-[5-(4-methoxy-phenyl)-thiophen-2-ylmethyl]-amino}-3-phenyl-propionic acid]
25 | < 5 | COc1ccc(-c2csc(CN(C(=O)c3ccc(Cl)cc3Cl)[C@@H](Cc3ccccc3)C(=O)O)c2)cc1 [compound #136, (2s)-2-{(2,4-Dichloro-benzoyl)-[4-(4-methoxy-phenyl)-thiophen-2-ylmethyl]-amino}-3-phenyl-propionic acid]
26 | < 5 | O=C(O)[C@H](Cc1ccccc1)N(Cc1ccc(-c2ccncc2)o1)C(=O)c1ccc(Cl)cc1Cl [compound #137, (2s)-2-[(2,4-Dichloro-benzoyl)-(5-pyridin-4-yl-furan-2-ylmethyl)-amino]-3-phenyl-propionic acid]
27 | < 5 | O=C(O)[C@H](Cc1ccccc1)N(Cc1ccc(-c2ccncc2)s1)C(=O)c1ccc(Cl)cc1Cl [compound #138, (2s)-2-[(2,4-Dichloro-benzoyl)-(5-pyridin-4-yl-thiophen-2-ylmethyl)-amino]-3-phenyl-propionic acid]
28 | < 5 | O=C(O)[C@H](Cc1ccccc1)N(Cc1cc(-c2ccncc2)cs1)C(=O)c1ccc(Cl)cc1Cl [compound #139, (2s)-2-[(2,4-Dichloro-benzoyl)-(4-pyridin-4-yl-thiophen-2-ylmethyl)-amino]-3-phenyl-propionic acid]

molecular target: recombinant HCV NS5B (Hepatitis C virus genotype 1b, UniProt P26663); test: biochemical; conditions: flashplate, polyrA/biotinylated-oligo dT, 100 nM NS5B, 2 hrs at room temperature; read-out: RNA pol Assay 2 IC50 (μm)
Sequence (P26663 2420-3010 limits assumed): as above
Protocol: In vitro HCV RdRp Flashplate Scintillation Proximity Assay (Strep-Flash Assay) Used to Evaluate Analogues:
In brief, a 400 ng/μl polyrA solution (Amersham Pharmacia Biotech) was mixed volume-to-volume with 5′ biotin-oligo dT12 at 20 pmol/μl. The template and primers were denatured at 95 C for 5 minutes then incubated at 37 C for 10 minutes. Annealed template-primers were subsequently diluted in a Tris-HCl containing buffer and allowed to bind to streptavidin-coated flashplates overnight.

Row | IC50 [µM] | SMILES
29 | 5 to 20 | CC(c1cccc(C#N)c1)N(C(=O)c1ccc(Cl)cc1Cl)[C@@H](Cc1ccccc1)C(=O)O (stereo in doubt) [Compound #205, 2-[[1-(3-CYANO-PHENYL)-ETHYL]-(2,4-DICHLORO-BENZOYL)-AMINO]-3PHENYL-PROPIONIC ACID]
30 | < 5 | O=C(O)C(Cc1ccccc1)N(Cc1cc(Cl)cc(Cl)c1)C(=O)c1ccc(Cl)cc1Cl (stereo in doubt) [compound #142, (2s)-2-[(2,4-Dichloro-benzoyl)-(3,5-dichloro-benzyl)-amino]-3-phenyl-propionic acid]
31 | < 5 | O=C(O)C(Cc1ccccc1)N(Cc1ccsc1)C(=O)c1ccc(Cl)cc1Cl (stereo in doubt) [compound #143, (2s)-2-[(2,4-Dichloro-benzoyl)-thiophen-3-ylmethyl-amino]-3-phenyl-propionic acid]
32 | 5 to 20 | O=C(O)[C@H](Cc1ccccc1)N(C[C@H]1CCCN1)C(=O)c1ccc(Cl)cc1Cl (stereo in doubt) [compound #168, d-2-[(2,4-Dichloro-benzoyl)-pyrrolidin-2-ylmethyl-amino]-3-phenyl-propionic acid]
